Test system: 521955-158-R2-J5-PDC complex spheroid growth
Experiment: Anticancer human tumor 521955-158-R2-J5-PDC patient-derived pancreatic carcinoma cell line growth inhibition [AhR]
Details: for IC50: curve of first compound; for viability, T/C: stronger effect = lower value; active = viability on the fitted dose curve at most 10% of control; inactive = the rest
Description: Multicellular complex tumor spheroid response to aryl hydrocarbon receptor antagonists in combination with a variety of drugs and investigational agents in selected tumor cell lines
The current study was undertaken to assess response to aryl hydrocarbon receptor antagonists in combination with standard-of-care drugs and investigational agents in solid tumor complex spheroid models. Complex spheroids include a stromal component modeled by human endothelial cells (HUVEC) and fibroblasts modeled by human mesenchymal stem cells (MSCs). The concentration ranges selected for each drug and investigational agent were based upon clinically achievable concentrations if the clinical Cmax of the agent was known.
Compounds. The drugs and investigational agents: BAY 2416964 (NSC825713), GNF351 (NSC835774), CH-223191 (NSC835775), CPI-455 (NSC825282), aza-TdCyd (NSC777586), decitabine (NSC127716), belinostat (NSC758774), entinostat (NSC756642), pevonedistat (NSC761192), tazemetostat (NSC777109), talazoparib (NSC765396), olaparib (NSC753686), selinexor (NSC780203), nedisertib (M3814, NSC802822), bortezomib (NSC756655), venetoclax (NSC766270), doxorubicin (NSC123127), elimusertib (BAY189344, NSC800525), ceralasertib (AZD6738, NSC777638), TAK-243 (NSC785004), alisertib (NSC759677), etoposide (NSC141540), topotecan (NSC609699), eribulin (NSC707389), gemcitabine (NSC613327), carboplatin (NSC241240), cisplatin (NSC119875), and SN-38 (NSC673596) were obtained from the National Cancer Institute (NCI) Developmental Therapeutics Program Chemical Repository (32). The FDA-approved anticancer drug set is available from the Developmental Therapeutics Program at https://dtp.cancer.gov/organization/dscb/obtaining/available plates.htm. […] The stock solutions were prepared in dimethyl sulfoxide (DMSO, Sigma-Aldrich, St. Louis, MO, cat. D2650), except for the platinum compounds which were prepared in saline (Quality Biological, Gaithersburg, MD, cat. 114-055-101), at 800-fold the tested concentration and stored at -70 degrees C prior to their use. All drugs and investigational agents were tested over a range starting from a high concentration at or near the clinical Cmax and decreasing in half-log increments. If the clinical Cmax for an agent had not been determined, the highest concentration tested was 10 microM (Table 1).
Cell Culture. All cells were maintained in an incubator at 37 degrees C and 5% CO2 with 95% humidity. The PDC lines were cultured according to standard operating procedures established by the NCI PDMR (https://pdmr.cancer.gov). Briefly, all PDCs were thawed and cultured in Matrigel-coated flasks prepared with a working solution of 1X Ham's F-12 nutrient mix, without supplementation (Invitrogen, Waltham, MA, cat. 11765054), 100 U/mL penicillin-streptomycin (Invitrogen, cat. 15140122), and 2.5% Matrigel (Corning Inc., Corning, NY, cat. 354248) for the first three passages. All PDCs were cultured in complete DMEM/F-12 media containing advanced DMEM/F-12 (Invitrogen, cat. 12634028), 4.9% defined fetal bovine serum, heat inactivated (HyClone Laboratories Inc., Logan, UT, cat. SH30070.03HI), 389 ng/mL hydrocortisone (Sigma-Aldrich, cat. H4001), 9.7 ng/mL human EGF recombinant protein (Invitrogen, cat. PHG0313), 23.4 microg/mL adenine (Sigma-Aldrich, cat. A2786), 97.3 U/mL penicillin-streptomycin (Invitrogen, cat. 15140122), 1.9 mM L-glutamine (Invitrogen, cat. 25030081), and 9.7 microM Y-27632 dihydrochloride (Tocris Bioscience, Bristol, United Kingdom, cat. 1254). The PDCs were cultured in complete DMEM/F12 media without 10 microM Y-27632 dihydrochloride for at least two passages prior to the screen. The established cell lines NCI-H1341 and […] were cultured in DMEM/F-12, HEPES (Invitrogen, cat. 11330032), 5% defined fetal bovine serum (HyClone Laboratories Inc., cat. SH30070.03), ITS premix universal culture supplement [insulin (5 microg/mL), transferrin (5 microg/mL), and selenious acid (5 ng/mL)] […]
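For viability, T/C in this document: spheroids mix tumor cells with HUVEC endothelium and human MSC stroma; luminescence taken as viability surrogate after a week of drug exposure.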

CC(C)CC(NC(=O)C(Cc1ccccc1)NC(=O)c1cnccn1)B(O)O (stereo not given) + CC(CO)NC(=O)c1cc(-c2ccc(Cl)cc2)nn(-c2cnn(C)c2)c1=O
inactive: viability, T/C (second compound 0.1 µM, first compound 0.000949 µM) 78.8% | viability, T/C (second compound 0.1 µM, first compound 0.003 µM) 71.6% | viability, T/C (second compound 0.316 µM, first compound 0.000949 µM) 103% | viability, T/C (second compound 0.316 µM, first compound 0.003 µM) 94.7% | viability, T/C (second compound 1 µM, first compound 0.000949 µM) 113% | viability, T/C (second compound 1 µM, first compound 0.003 µM) 70.6% | viability, T/C (second compound 3.16 µM, first compound 0.000949 µM) 83.5% | viability, T/C (second compound 3.16 µM, first compound 0.003 µM) 81.6% | viability, T/C (second compound 10 µM, first compound 0.000949 µM) 68.2% | viability, T/C (second compound 10 µM, first compound 0.003 µM) 68.3%
4.86 nM: IC50 (second compound 3.16 µM)
4.34 nM: IC50 (second compound 1 µM)
4.16 nM: IC50 (second compound 10 µM)
active: viability, T/C (second compound 0.1 µM, first compound 0.00949 µM) 5.92% | viability, T/C (second compound 0.1 µM, first compound 0.03 µM) 2.45% | viability, T/C (second compound 0.1 µM, first compound 0.0949 µM) 2% | viability, T/C (second compound 0.1 µM, first compound 0.3 µM) 0.19% | viability, T/C (second compound 0.316 µM, first compound 0.00949 µM) 6.1% | viability, T/C (second compound 0.316 µM, first compound 0.03 µM) 1.23% | viability, T/C (second compound 0.316 µM, first compound 0.0949 µM) 0.12% | viability, T/C (second compound 0.316 µM, first compound 0.3 µM) 1.89% | viability, T/C (second compound 1 µM, first compound 0.00949 µM) 6.39% | viability, T/C (second compound 1 µM, first compound 0.03 µM) 2.84% | viability, T/C (second compound 1 µM, first compound 0.0949 µM) 0.51% | viability, T/C (second compound 1 µM, first compound 0.3 µM) 0.29% | viability, T/C (second compound 3.16 µM, first compound 0.00949 µM) 6.11% | viability, T/C (second compound 3.16 µM, first compound 0.03 µM) 0.25% | viability, T/C (second compound 3.16 µM, first compound 0.0949 µM) 1.98% | viability, T/C (second compound 3.16 µM, first compound 0.3 µM) 1.99% | viability, T/C (second compound 10 µM, first compound 0.00949 µM) 3.86% | viability, T/C (second compound 10 µM, first compound 0.03 µM) 0.37% | viability, T/C (second compound 10 µM, first compound 0.0949 µM) 0.52% | viability, T/C (second compound 10 µM, first compound 0.3 µM) 1.58%
4.38 nM: IC50 (second compound 0.1 µM)
5.36 nM: IC50 (second compound 0.316 µM)

Nc1ccccc1NC(=O)c1ccc(CNC(=O)OCc2cccnc2)cc1 + CC(CO)NC(=O)c1cc(-c2ccc(Cl)cc2)nn(-c2cnn(C)c2)c1=O
3620 nM: IC50 (second compound 3.16 µM)
4560 nM: IC50 (second compound 0.1 µM)
inactive: viability, T/C (second compound 0.1 µM, first compound 0.0316 µM) 119% | viability, T/C (second compound 0.1 µM, first compound 0.1 µM) 126% | viability, T/C (second compound 0.1 µM, first compound 0.316 µM) 123% | viability, T/C (second compound 0.1 µM, first compound 1 µM) 87.9% | viability, T/C (second compound 0.1 µM, first compound 3.16 µM) 66.2% | viability, T/C (second compound 0.1 µM, first compound 10 µM) 22.9% | viability, T/C (second compound 0.316 µM, first compound 0.0316 µM) 111% | viability, T/C (second compound 0.316 µM, first compound 0.1 µM) 130% | viability, T/C (second compound 0.316 µM, first compound 0.316 µM) 114% | viability, T/C (second compound 0.316 µM, first compound 1 µM) 85.9% | viability, T/C (second compound 0.316 µM, first compound 3.16 µM) 57.1% | viability, T/C (second compound 0.316 µM, first compound 10 µM) 25.2% | viability, T/C (second compound 1 µM, first compound 0.0316 µM) 118% | viability, T/C (second compound 1 µM, first compound 0.1 µM) 134% | viability, T/C (second compound 1 µM, first compound 0.316 µM) 120% | viability, T/C (second compound 1 µM, first compound 1 µM) 77.1% | viability, T/C (second compound 1 µM, first compound 3.16 µM) 54.6% | viability, T/C (second compound 1 µM, first compound 10 µM) 20% | viability, T/C (second compound 3.16 µM, first compound 0.0316 µM) 115% | viability, T/C (second compound 3.16 µM, first compound 0.1 µM) 109% | viability, T/C (second compound 3.16 µM, first compound 0.316 µM) 117% | viability, T/C (second compound 3.16 µM, first compound 1 µM) 75.6% | viability, T/C (second compound 3.16 µM, first compound 3.16 µM) 58.8% | viability, T/C (second compound 3.16 µM, first compound 10 µM) 17.6% | viability, T/C (second compound 10 µM, first compound 0.0316 µM) 94.7% | viability, T/C (second compound 10 µM, first compound 0.1 µM) 91% | viability, T/C (second compound 10 µM, first compound 0.316 µM) 101% | viability, T/C (second compound 10 µM, first compound 1 µM) 81.6% | viability, T/C (second compound 10 µM, first compound 3.16 µM) 52.6% | viability, T/C (second compound 10 µM, first compound 10 µM) 14.1%
3740 nM: IC50 (second compound 0.316 µM)
2940 nM: IC50 (second compound 1 µM)
3360 nM: IC50 (second compound 10 µM)

— PubChem BioAssay AID1918998 (Molecular Pharmacology Branch, DTP, NCI, 2023)
